Laboratory results taken from patent US9730940B2, “Purine inhibitors of human phosphatidylinositol 3-kinase delta” (priority 2012, dated 2017).

Molecular target: PI3K-alpha (Homo sapiens (Human), UniProt P42336)
Experiment: HTRF PI3K biochemical assay, alpha isoform
Conditions: ratio PI3K-alpha IC50 value/PI3K-delta IC50 value
From the text: HTRF PI3K Biochemical Assay to Measure Intrinsic Potency of Compound Inhibitors
The PI3-Kinase biochemical assays were developed to measure the intrinsic potency and compound dependent inhibition of the alpha, beta, delta, and gamma PI3K isoform enzymes. This assay was developed and further optimized from a kit produced by Upstate (Millipore catalog #33-047) and has been configured for HTS and SAR screening. Briefly, this procedure exploits the exquisite specificity and high affinity binding of enzyme reaction substrate phosphatidyl(3,4,5)triphosphate (PIP3) to the GRP1 pleckstrin homology (PH) domain to generate the signal. In the absence of PIP3, an HTRF (Homogeneous Time-Resolved Fluorescence energy transfer) complex is formed consisting of europium (Eu)-labeled anti-GST, GST tagged GRP1-PH domain, biotin-PIP3 and streptavidin conjugated APC. The native PIP3 produced by PI3-Kinase activity disrupts in a competitive manner the biotin-PIP3 from the PH domain, resulting in the loss of energy transfer (HTRF complex) and a decrease in the signal. The format of this assay is the same for all 4 isoforms of PI3K; the differences lie in the concentration of enzyme used to achieve robust assay window. The alpha, beta, and delta assays are run at 0.5, 1, and 0.3 nM enzymes and the gamma assay is run at 5 nM enzyme. The ATP concentration is 100 uM in the alpha, beta, and delta assays and 50 uM ATP in the gamma assay. All reactions are run at 5 uM PIP2.
Compounds are serially diluted (3-fold in 100% DMSO) across a 384-well polypropylene source plated from column 3 to column 12 and column 13 to column 22, to yield 10 concentration dose response for each test compound. Columns 1, 2, 23 and 24 contain either only DMSO or pharmacological known control inhibitor.
The PI3-Kinase biochemical assay was optimized using the HTRF kit provided by Upstate (Millipore). The assay kit contains six reagents: 1) 4× Reaction Buffer; 2) native PIP2 (substrate); 3) Stop (EDTA); 4) Detection Mix A (Streptavidin-APC); 5) Detection Mix B (Eu-labeled Anti-GST plus GST-tagged PH-domain); 6) Detection Mix C.
PI3Kinase Reaction Buffer is prepared by dilution the stock 1:4 with de-ionized water. […] Enzyme addition and compound pre-incubation are initiated by the addition of 1.25 ul of PI3K (at twice its final concentration) in the 1× reaction buffer to all wells using a BioRaptor. Plates are incubated at room temperature for 15 minutes. Reactions are initiated by addition of 1.25 ul of 2× substrate solution (PIP2 and ATP in 1× reaction buffer) using BioRaptor. Plates are incubated in humidified chamber at room temperature for one hour. Reactions are quenched by addition of 0.625 uL of stop solution to all wells using the BioRaptor. The quenched reactions are then processed to detect product formation by adding 0.625 uL of Detection Solution to all wells using the BioRaptor (Detection mix C, Detection Mix A, and Detection Mix B combined together in an 18:1:1 ratio prepared 2 hours prior to use).
The loss of the HTRF signal is due to the displacement of biotinylated-PIP3 from the PH domain by the PI3K-dependent conversion of PIP2 to PIP3. This loss of signal is nonlinear with respect to both increasing product and time. This non-linear detection will impact accuracy of IC50 calculations; therefore, there is a need for a correction factor to obtain more accurate IC50 values. This correction is derived from a PIP3 standard curve run in a separate assay plate. All data were calculated using the ratio of acceptor (APC) to donor (Europium) fluorescence in each well of the assay plate. […] An IC50 was then calculated fitting the % inhibition data to the equation: % inhibition=min+(Max−min)/1+([inhibitor]/IC50)^n) where min is the % inhibition […], max is the signal in DMSO control, and n is the Hill slope.

PI3K-alpha, sequence (P42336 whole entry, looked up, canonical isoform): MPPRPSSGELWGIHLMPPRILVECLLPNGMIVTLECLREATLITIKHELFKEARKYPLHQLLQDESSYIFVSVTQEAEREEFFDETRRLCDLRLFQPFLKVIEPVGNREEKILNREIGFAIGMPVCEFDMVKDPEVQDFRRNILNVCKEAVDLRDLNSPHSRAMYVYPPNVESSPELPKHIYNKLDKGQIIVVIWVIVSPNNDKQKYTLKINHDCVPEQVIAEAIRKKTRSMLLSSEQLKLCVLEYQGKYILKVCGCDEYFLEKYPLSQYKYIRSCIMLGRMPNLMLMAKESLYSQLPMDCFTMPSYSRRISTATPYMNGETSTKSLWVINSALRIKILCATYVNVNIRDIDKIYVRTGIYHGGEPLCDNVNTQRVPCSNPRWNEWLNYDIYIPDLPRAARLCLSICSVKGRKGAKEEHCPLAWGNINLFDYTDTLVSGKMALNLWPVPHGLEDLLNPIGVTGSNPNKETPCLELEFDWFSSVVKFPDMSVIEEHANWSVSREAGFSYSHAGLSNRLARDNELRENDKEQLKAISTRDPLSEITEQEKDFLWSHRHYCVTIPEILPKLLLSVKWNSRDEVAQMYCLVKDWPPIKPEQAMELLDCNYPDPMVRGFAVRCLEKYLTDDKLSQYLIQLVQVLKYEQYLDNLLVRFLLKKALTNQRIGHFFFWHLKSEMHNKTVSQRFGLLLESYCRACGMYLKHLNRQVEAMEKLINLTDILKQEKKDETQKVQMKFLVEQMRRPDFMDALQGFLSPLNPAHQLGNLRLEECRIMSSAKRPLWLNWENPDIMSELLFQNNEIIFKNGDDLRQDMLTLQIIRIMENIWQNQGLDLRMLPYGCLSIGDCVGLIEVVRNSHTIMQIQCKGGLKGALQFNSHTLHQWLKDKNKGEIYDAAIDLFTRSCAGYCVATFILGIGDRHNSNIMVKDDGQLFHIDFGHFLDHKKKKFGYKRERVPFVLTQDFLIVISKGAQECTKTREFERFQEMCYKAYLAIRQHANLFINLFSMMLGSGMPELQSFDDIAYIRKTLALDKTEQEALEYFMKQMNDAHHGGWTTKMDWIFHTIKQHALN
PI3K-alpha, sequence (P27986 whole entry partner, looked up, canonical isoform): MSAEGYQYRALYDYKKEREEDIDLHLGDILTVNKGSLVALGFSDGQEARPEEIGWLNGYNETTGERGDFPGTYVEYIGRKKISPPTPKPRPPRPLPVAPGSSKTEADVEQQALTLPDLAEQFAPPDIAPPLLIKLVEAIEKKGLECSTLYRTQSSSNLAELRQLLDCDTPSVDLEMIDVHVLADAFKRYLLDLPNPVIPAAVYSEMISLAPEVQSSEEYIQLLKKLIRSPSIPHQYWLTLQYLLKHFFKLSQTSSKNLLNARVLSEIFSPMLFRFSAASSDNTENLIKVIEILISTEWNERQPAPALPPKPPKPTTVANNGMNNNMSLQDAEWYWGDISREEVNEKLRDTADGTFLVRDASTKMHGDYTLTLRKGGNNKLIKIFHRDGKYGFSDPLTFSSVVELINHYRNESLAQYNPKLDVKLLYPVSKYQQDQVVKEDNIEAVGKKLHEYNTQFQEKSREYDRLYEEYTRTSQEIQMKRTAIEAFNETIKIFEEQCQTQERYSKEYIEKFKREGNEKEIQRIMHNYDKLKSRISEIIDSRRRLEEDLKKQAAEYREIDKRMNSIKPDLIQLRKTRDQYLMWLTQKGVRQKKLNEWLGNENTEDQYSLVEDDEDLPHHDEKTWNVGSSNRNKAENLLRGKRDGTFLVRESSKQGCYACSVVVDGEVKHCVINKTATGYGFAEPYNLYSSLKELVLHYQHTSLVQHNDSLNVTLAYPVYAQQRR

Structure (SMILES) | Relative Selectivity versus PI3Kalpha
Cn1c(-c2ccc(N3CCOCC3)nc2)nc2c(O[C@H]3CCN(C(=O)OC(C)(C)C)C3)ncnc21 [Compound 1-24, tert-butyl (3S)-3-{[9-methyl-8-(6-morpholin-4-ylpyridin-3-yl)-9H-purin-6-yl]oxy}pyrrolidine-1-carboxylate] | >2
Cn1c(-c2ccc(-n3ccnc3)cc2)nc2c(O[C@H]3CCN(C(=O)OC(C)(C)C)C3)ncnc21 [Compound 1-25, tert-butyl (3S)-3-({8-[4-(1H-imidazol-1-yl)phenyl]-9-methyl-9H-purin-6-yl}oxy)pyrrolidine-1-carboxylate] | >10
Cc1n[nH]cc1-c1nc2c(O[C@H]3CCN(C(=O)OC(C)(C)C)C3)ncnc2n1C [Compound 1-26, tert-butyl (3S)-3-{[9-methyl-8-(3-methyl-1H-pyrazol-4-yl)-9H-purin-6-yl]oxy}pyrrolidine-1-carboxylate] | >10
Cn1c(-c2ccc(N3CCCC3)nc2)nc2c(O[C@H]3CCN(C(=O)OC(C)(C)C)C3)ncnc21 [Compound 1-27, tert-butyl (3S)-3-{[9-methyl-8-(6-pyrrolidin-1-ylpyridin-3-yl)-9H-purin-6-yl]oxy}pyrrolidine-1-carboxylate] | >10
Cn1c(-c2cncc3ccccc23)nc2c(O[C@H]3CCN(C(=O)OC(C)(C)C)C3)ncnc21 [Compound 1-28, tert-butyl (3S)-3-[(8-isoquinolin-4-yl-9-methyl-9H-purin-6-yl)oxy]pyrrolidine-1-carboxylate] | >10
Cn1c(-c2ccc3[nH]ncc3c2)nc2c(O[C@H]3CCN(C(=O)OC(C)(C)C)C3)ncnc21 [Compound 1-29, tert-butyl (3S)-3-{[8-(1H-indazol-5-yl)-9-methyl-9H-purin-6-yl]oxy}pyrrolidine-1-carboxylate] | >10
CCn1ncc(-c2nc3c(OC4CC(C)N(C(=O)OC(C)(C)C)C4)ncnc3n2C)c1C (stereo not drawn) [Compound 1-30, tert-butyl 4-((8-(1-ethyl-5-methyl-1H-pyrazol-4-yl)-9-methyl-9H-purin-6-yl)oxy)-2-methylpyrrolidine-1-carboxylate] | 3
COC1CC(c2nc3c(OC4CCN(C(=O)OC(C)(C)C)C4)ncnc3n2C)C1 [Compound 1-31, (S)-tert-butyl 3-((8-(3-methoxycyclobutyl)-9-methyl-9H-purin-6-yl)oxy)pyrrolidine-1-carboxylate] | >5
Cn1cnc2c(O[C@H]3CCN(C(=O)OC(C)(C)C)C3)ncnc21 [Compound 1-32, (S)-tert-butyl 3-((9-methyl-9H-purin-6-yl)oxy)pyrrolidine-1-carboxylate] | >7
Cc1n[nH]c2ncc(-c3nc4c(O[C@H]5CCN(C(=O)OC(C)(C)C)C5)ncnc4n3C)cc12 [Compound 1-33, (S)-tert-butyl 3-((9-methyl-8-(3-methyl-1H-pyrazolo[3,4-b]pyridin-5-yl)-9H-purin-6-yl)oxy}pyrrolidine-1-carboxylate] | >10
CCn1c(-c2cnc(OC)c(C)c2)nc2c(O[C@H]3CCN(C(=O)OC(C)(C)C)C3)ncnc21 [Compound 1-34, tert-butyl (3S)-3-{[9-ethyl-8-(6-methoxy-5-methylpyridin-3-yl)-9H-purin-6-yl]oxy}pyrrolidine-1-carboxylate] | >10
CCn1c(-c2cnc(C(C)(C)C)s2)nc2c(O[C@H]3CCN(C(=O)OC(C)(C)C)C3)ncnc21 [Compound 1-35, tert-butyl (3S)-3-{[8-(2-tert-butyl-1,3-thiazol-5-yl)-9-ethyl-9H-purin-6-yl]oxy}pyrrolidine-1-carboxylate] | >10
CCn1ncc(-c2nc3c(O[C@H]4CCN(C(=O)OC)C4)ncnc3n2C)c1C [Compound 1-36, methyl (3S)-3-{[8-(1-ethyl-5-methyl-1H-pyrazol-4-yl)-9-methyl-9H-purin-6-yl]oxy}pyrrolidine-1-carboxylate] | >10
CCOC(=O)N1CC[C@H](Oc2ncnc3c2nc(-c2cnn(CC)c2C)n3C)C1 [Compound 1-37, ethyl (3S)-3-{[8-(1-ethyl-5-methyl-1H-pyrazol-4-yl)-9-methyl-9H-purin-6-yl]oxy}pyrrolidine-1-carboxylate] | >10
CCn1ncc(-c2nc3c(O[C@H]4CCN(C(=O)OC(C)C)C4)ncnc3n2C)c1C [Compound 1-38, 1-methylethyl (3S)-3-{[8-(1-ethyl-5-methyl-1H-pyrazol-4-yl)-9-methyl-9H-purin-6-yl]oxy}pyrrolidine-1-carboxylate] | >10
Cn1c(-c2cnc(C(C)(C)C)s2)nc2c(O[C@H]3CCN(C(=O)OC(C)(C)C)C3)ncnc21 [Compound 1-39, tert-butyl (3S)-3-{[8-(2-tert-butyl-1,3-thiazol-5-yl)-9-methyl-9H-purin-6-yl]oxy}pyrrolidine-1-carboxylate] | >10
CCn1ncc(-c2nc3c(OC4CN(C(=O)OC(C)(C)C)C4)ncnc3n2C)c1C [Compound 1-40, tert-butyl 3-((8-(1-ethyl-5-methyl-1H-pyrazol-4-yl)-9-methyl-9H-purin-6-yl)oxy)azetidine-1-carboxylate] | >10
CCn1ncc(-c2nc3c(O[C@H]4CCCN(C(=O)OC(C)(C)C)C4)ncnc3n2C)c1C [Compound 1-41, (S)-tert-butyl 3-((8-(1-ethyl-5-methyl-1H-pyrazol-4-yl)-9-methyl-9H-purin-6-yl)oxy)piperidine-1-carboxylate] | >10
CCn1ncc(-c2nc3c(O[C@@H]4CCCN(C(=O)OC(C)(C)C)C4)ncnc3n2C)c1C [Compound 1-42, (R)-tert-butyl 3-((8-(1-ethyl-5-methyl-1H-pyrazol-4-yl)-9-methyl-9H-purin-6-yl)oxy)piperidine-1-carboxylate] | >2
CCOC(=O)N1CC[C@H](Oc2ncnc3c2nc(-c2cnc(C)nc2)n3CC)C1 [Compound 1-43, (S)-ethyl 3-{[9-ethyl-8-(2-methylpyrimidin-5-yl)-9H-purin-6-yl]oxy}pyrrolidine-1-carboxylate] | >10
CCn1c(-c2cnc(C)nc2)nc2c(OC3CN(C(=O)OC(C)(C)C)CC3F)ncnc21 [Compound 1-44, [(3S,4S) and (3R,4R)]-tert-butyl 3-{[9-ethyl-8-(2-methylpyrimidin-5-yl)-9H-purin-6-yl]oxy}-4-fluoropyrrolidine-1-carboxylate] | >10
CCC1CN(C(=O)OCc2ccccc2)CC1Oc1ncnc2c1nc(-c1cnc(C)nc1)n2CC [Compound 1-45, [(3S,4R) and (3R,4S)]-benzyl 3-ethyl-4-{[9-ethyl-8-(2-methylpyrimidin-5-yl)-9H-purin-6-yl]oxy}pyrrolidine-1-carboxylate] | >10
CCn1c(-c2cnc(C)nc2)nc2c(OC3CN(C(=O)OC(C)(C)C)CC3O)ncnc21 [Compound 1-46, [(3S,4S) and (3R,4R)]-tert-butyl 3-{[9-ethyl-8-(2-methylpyrimidin-5-yl)-9H-purin-6-yl]oxy}-4-hydroxypyrrolidine-1-carboxylate] | >10
CCn1c(-c2cnc(C)nc2)nc2c(OC3CN(C(=O)OC(C)(C)C)CC3(F)F)ncnc21 (stereo not drawn) [Compound 1-47, (4S and 4R)-tert-butyl 4-{[9-ethyl-8-(2-methylpyrimidin-5-yl)-9H-purin-6-yl]oxy}-3,3-difluoropyrrolidine-1-carboxylate] | >10
